{"source": "ChEMBL document CHEMBL3132772", "about": "(Medchemcomm, 2014)", "data": [{"molecular_target": "Prothrombin (Homo sapiens, UniProt P00734)", "test": "Inhibition of thrombin (unknown origin) using S-2238 as substrate after 15 mins by spectrophotometry", "settings": "not given", "units": {"Ki": "µM"}, "values": [{"smiles": "O=C(NC[C@H]1CN(c2ccc(N3CCC(C(=O)O)CC3)cc2)C(=O)O1)c1ccc(Cl)s1", "note": "(mixture of isomers)", "Ki": 16.6}, {"smiles": "CCOC(=O)C1CCCCN1c1ccc(N2C[C@H](CNC(=O)c3ccc(Cl)s3)OC2=O)cc1", "note": "(mixture of isomers)", "Ki": 0.353}, {"smiles": "CCOC(=O)C1CCN(c2ccc(N3C[C@H](CNC(=O)c4ccc(Cl)s4)OC3=O)cc2)C(=O)C1", "note": "(mixture of isomers)", "Ki": "> 100"}, {"smiles": "O=C(NC[C@H]1CN(c2ccc(N3CCC(C(=O)O)CC3=O)cc2)C(=O)O1)c1ccc(Cl)s1", "note": "(mixture of isomers)", "Ki": 69.6}, {"smiles": "CCOC(=O)C1CCN(c2ccc(N3C[C@H](CNC(=O)c4ccc(Cl)s4)OC3=O)cc2)CC1", "note": "(mixture of isomers)", "Ki": "> 100"}, {"smiles": "CCOC(=O)C1CCCN(c2ccc(N3C[C@H](CNC(=O)c4ccc(Cl)s4)OC3=O)cc2)C1", "note": "(mixture of isomers)", "Ki": "> 100"}, {"smiles": "O=C(NC[C@H]1CN(c2ccc(N3CCCC(C(=O)O)C3)cc2)C(=O)O1)c1ccc(Cl)s1", "note": "(mixture of isomers)", "Ki": 17.6}]}, {"tested_on": "not listed separately", "test": "Metabolic stability in human plasma assessed as compound remaining at […] after 4 hrs by HPLC analysis", "type": "ADME, cell-free", "settings": "read-out: Stability", "units": {"remaining at 4 h": "%"}, "values": [{"smiles": "CCOC(=O)C1CCCCN1c1ccc(N2C[C@H](CNC(=O)c3ccc(Cl)s3)OC2=O)cc1", "note": "(mixture of isomers)", "remaining at 4 h": 100}, {"smiles": "CCOC(=O)C1CCN(c2ccc(N3C[C@H](CNC(=O)c4ccc(Cl)s4)OC3=O)cc2)CC1", "note": "(mixture of isomers)", "remaining at 4 h": 95}]}, {"molecular_target": "Coagulation factor X (Homo sapiens, UniProt P00742)", "sequence (P00742 41-179 limits assumed)": "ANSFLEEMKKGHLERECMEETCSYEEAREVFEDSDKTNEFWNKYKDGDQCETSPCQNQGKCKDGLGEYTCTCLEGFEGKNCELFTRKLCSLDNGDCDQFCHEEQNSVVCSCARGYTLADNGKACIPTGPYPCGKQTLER", "sequence (P00742 235-488 limits assumed)": "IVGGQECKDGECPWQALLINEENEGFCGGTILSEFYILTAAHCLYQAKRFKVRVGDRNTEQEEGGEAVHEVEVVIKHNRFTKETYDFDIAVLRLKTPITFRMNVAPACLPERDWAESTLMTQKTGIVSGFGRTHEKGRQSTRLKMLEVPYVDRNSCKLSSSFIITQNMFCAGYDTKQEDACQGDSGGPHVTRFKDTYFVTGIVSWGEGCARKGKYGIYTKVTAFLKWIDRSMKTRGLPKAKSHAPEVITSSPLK", "test": "Inhibition of factor 10a (unknown origin) using S-2222 as substrate after 15 mins by spectrophotometry", "settings": "not given", "units": {"Ki": "µM"}, "values": [{"smiles": "O=C(NC[C@H]1CN(c2ccc(N3CCC(C(=O)O)CC3)cc2)C(=O)O1)c1ccc(Cl)s1", "note": "(mixture of isomers)", "Ki": 0.0887}, {"smiles": "CCOC(=O)C1CCCCN1c1ccc(N2C[C@H](CNC(=O)c3ccc(Cl)s3)OC2=O)cc1", "note": "(mixture of isomers)", "Ki": 0.0622}, {"smiles": "CCOC(=O)C1CCN(c2ccc(N3C[C@H](CNC(=O)c4ccc(Cl)s4)OC3=O)cc2)C(=O)C1", "note": "(mixture of isomers)", "Ki": 0.0219}, {"smiles": "O=C(NC[C@H]1CN(c2ccc(N3CCC(C(=O)O)CC3=O)cc2)C(=O)O1)c1ccc(Cl)s1", "note": "(mixture of isomers)", "Ki": 0.337}, {"smiles": "CCOC(=O)C1CCN(c2ccc(N3C[C@H](CNC(=O)c4ccc(Cl)s4)OC3=O)cc2)CC1", "note": "(mixture of isomers)", "Ki": 0.769}, {"smiles": "CCOC(=O)C1CCCN(c2ccc(N3C[C@H](CNC(=O)c4ccc(Cl)s4)OC3=O)cc2)C1", "note": "(mixture of isomers)", "Ki": 0.0624}, {"smiles": "O=C(NC[C@H]1CN(c2ccc(N3CCCC(C(=O)O)C3)cc2)C(=O)O1)c1ccc(Cl)s1", "note": "(mixture of isomers)", "Ki": 1.22}]}, {"molecular_target": "Trypsin (Homo sapiens, UniProt P07477+P07478+P35030)", "test": "Inhibition of trypsin (unknown origin) using S-2222 as substrate after 15 mins by spectrophotometry", "type": "protein assay", "settings": "not given", "units": {"Ki": "µM"}, "values": [{"smiles": "O=C(NC[C@H]1CN(c2ccc(N3CCC(C(=O)O)CC3)cc2)C(=O)O1)c1ccc(Cl)s1", "note": "(mixture of isomers)", "Ki": "> 100"}, {"smiles": "CCOC(=O)C1CCCCN1c1ccc(N2C[C@H](CNC(=O)c3ccc(Cl)s3)OC2=O)cc1", "note": "(mixture of isomers)", "Ki": "> 100"}, {"smiles": "CCOC(=O)C1CCN(c2ccc(N3C[C@H](CNC(=O)c4ccc(Cl)s4)OC3=O)cc2)C(=O)C1", "note": "(mixture of isomers)", "Ki": "> 100"}, {"smiles": "O=C(NC[C@H]1CN(c2ccc(N3CCC(C(=O)O)CC3=O)cc2)C(=O)O1)c1ccc(Cl)s1", "note": "(mixture of isomers)", "Ki": "> 100"}, {"smiles": "CCOC(=O)C1CCN(c2ccc(N3C[C@H](CNC(=O)c4ccc(Cl)s4)OC3=O)cc2)CC1", "note": "(mixture of isomers)", "Ki": "> 100"}, {"smiles": "CCOC(=O)C1CCCN(c2ccc(N3C[C@H](CNC(=O)c4ccc(Cl)s4)OC3=O)cc2)C1", "note": "(mixture of isomers)", "Ki": "> 100"}, {"smiles": "O=C(NC[C@H]1CN(c2ccc(N3CCCC(C(=O)O)C3)cc2)C(=O)O1)c1ccc(Cl)s1", "note": "(mixture of isomers)", "Ki": "> 100"}]}]}
